Experimental data from patent publication US20230151326A1, “Simplified Compositions and Methods for Generating Neural Stem Cells from Human Pluripotent Stem Cells” (Wisconsin Alumni Research Foundation, priority 2012, published 2023).

Tested on: H9 hESCs
Assay: Flow cytometry of neural markers in H9 hESCs differentiated in neural differentiation media
Format: cell-based, human
Settings: day 9, E6 medium containing 1 μM RA
Protocol: hPSCs were washed once with phosphate-buffered saline (PBS; Invitrogen), incubated with Accutase® (Invitrogen) for 3 min, and collected by centrifugation. hPSCs were then plated onto Matrigel® or VTN-NC at a density of 2×10^5 cells/cm^2 in E8 medium containing 10 μM ROCK inhibitor and cultured overnight. The following morning, cells were changed to E6 medium, E6 containing 10 μM SB431542 (Cellagentech), or E6 containing 10 μM SB431542 and 200 ng/mL recombinant human noggin (R&D Systems) to initiate differentiation. E6 medium is the same formulation as E8 medium but without FGF2 and TGFβ1. Medium was changed every day until cells were utilized for analysis. […]
Cells were harvested from 6- or 12-well plates by washing once with PBS and incubating with Accutase® for 3-5 min. […] After washing twice with PBS containing 0.75% BSA, cells were analyzed on a FACSCanto™ (BD Biosciences) and resultant data were analyzed using Cyflogic software. Positive events were determined by gating the top 1% of the IgG control histograms, and all flow data presented are from biological replicates.
H9 hESCs were seeded at 2×10^5 cells/cm^2 on Matrigel® in E8 medium plus ROCK inhibitor as described above. […] Also, the morphological characteristics of the cells at day 6 were assessed by bright field microscopy. […]

## CC1=C(/C=C/C(C)=C/C=C/C(C)=C/C(=O)O)C(C)(C)CCC1 [retinoic acid]
  SOX1 expression by flow cytometry: up to 62±16%
